{"source": "the supplement of paper PMC11208160"}
{"experiment": "recombinant barcode read abundance after kanamycin selection (control-corrected) (log10(CPM+1)); higher = more efficient recombination; sequences stand for … in AGTGCAGAGAAAATCGGCCAGTTTTCTCTGCCTGCAGTCCGCATGCCGT…AGATTTATGCAGCGGACTGCCTTTCTCCCAAAGTGATAAACCGGACAGTATCATGGACCGGTTTTCCCGGTAATCCGTATTTGCAAGGTTGGTTTCACT; site = the 11-nt target", "how_it_was_run": "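Recombination efficiency draws on barcodes counted at recombinant junctions in a pooled E. coli screen of targets paired with IS621 bridge RNA target-binding loops. The counts were converted to counts per million, averaged and corrected against the chloramphenicol/ampicillin LB agar control, then reported as log10(CPM+1). Selection plates held chloramphenicol/ampicillin/kanamycin with 0.1 mM IPTG, with two replicates per condition.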"}
{"sequence": "TCTAGATCTTGGGTTCTAACCTGTTGCCT (site TCTAGAACTAG)", "recombinant barcode read abundance (log10)": 0.0897}
{"sequence": "TCTAGATCTTGGGTTCTAACCTGTTGCCT (site TCTAGACCTAG)", "recombinant barcode read abundance (log10)": 0.0764}
{"sequence": "TCTAGATCTTGGGTTCTAACCTGTTGCCT (site TCTAGAGCTAG)", "recombinant barcode read abundance (log10)": 0.135}
{"sequence": "TCTAGATCTTGGGTTCTAACCTGTTGCCT (site TCTAGATCTAG)", "recombinant barcode read abundance (log10)": 0.0616}
{"sequence": "TCTATCCCTTGGGTTCTAACCTGTTGCCT (site TCAATCCCTAG)", "recombinant barcode read abundance (log10)": 0.113}
{"sequence": "TCTATCCCTTGGGTTCTAACCTGTTGCCT (site TCCATCCCTAG)", "recombinant barcode read abundance (log10)": 0.105}
{"sequence": "TCTATCCCTTGGGTTCTAACCTGTTGCCT (site TCGATCCCTAG)", "recombinant barcode read abundance (log10)": 0.0408}
{"sequence": "TCTATCCCTTGGGTTCTAACCTGTTGCCT (site TCTATCCCTAG)", "recombinant barcode read abundance (log10)": 0.203}
{"sequence": "TCTATGACTTGGGTTCTAACCTGTTGCCT (site TCTATGACTAG)", "recombinant barcode read abundance (log10)": 0.0099}
{"sequence": "TCTATGACTTGGGTTCTAACCTGTTGCCT (site TCTATGTCTAG)", "recombinant barcode read abundance (log10)": 0.187}
{"sequence": "TCTCAGCCTTGGGTTCTAACCTGTTGCCT (site TCTCAGCCTAG)", "recombinant barcode read abundance (log10)": 0.453}
{"sequence": "TCTCAGCCTTGGGTTCTAACCTGTTGCCT (site TCTCCGCCTAG)", "recombinant barcode read abundance (log10)": 0.0825}
{"sequence": "TCTCAGCCTTGGGTTCTAACCTGTTGCCT (site TCTCGGCCTAG)", "recombinant barcode read abundance (log10)": 0.291}
{"sequence": "TCTCAGCCTTGGGTTCTAACCTGTTGCCT (site TCTCTGCCTAG)", "recombinant barcode read abundance (log10)": 0.0307}
{"sequence": "TCTGAAACTTGGGTTCTAACCTGTTGCCT (site TCCGAAACTAT)", "recombinant barcode read abundance (log10)": 0.12}
{"sequence": "TCTGAAACTTGGGTTCTAACCTGTTGCCT (site TCTGAAACTAG)", "recombinant barcode read abundance (log10)": 0.413}
{"sequence": "TCTGGGCCTTGGGTTCTAACCTGTTGCTT (site TCTGGGCCTAA)", "recombinant barcode read abundance (log10)": 0.0924}
{"sequence": "TCTGGGCCTTGGGTTCTAACCTGTTGCTT (site TCTGGGCCTTA)", "recombinant barcode read abundance (log10)": 0.525}
{"sequence": "TCTGGGGCTTGGGTTCTAACCTGTTGCAG (site TCTGGGGCTCA)", "recombinant barcode read abundance (log10)": 0.686}
{"sequence": "TCTGGGGCTTGGGTTCTAACCTGTTGCAG (site TCTGGGGCTCC)", "recombinant barcode read abundance (log10)": 0.189}
{"sequence": "TCTGGGGCTTGGGTTCTAACCTGTTGCAG (site TCTGGGGCTCG)", "recombinant barcode read abundance (log10)": 0.159}
{"sequence": "TCTGGGGCTTGGGTTCTAACCTGTTGCAG (site TCTGGGGCTCT)", "recombinant barcode read abundance (log10)": 2.15}
{"sequence": "TCTGTCTCTTGGGTTCTAACCTGTTGCCT (site TCTGTCTCTAG)", "recombinant barcode read abundance (log10)": 2.03}
{"sequence": "TCTGTCTCTTGGGTTCTAACCTGTTGCCT (site TGTGTCTCTAC)", "recombinant barcode read abundance (log10)": 0.0569}
{"sequence": "TCTTGGACTTGGGTTCTAACCTGTTGCTA (site TCTTGGACTAA)", "recombinant barcode read abundance (log10)": 0.214}
{"sequence": "TCTTGGACTTGGGTTCTAACCTGTTGCTA (site TCTTGGACTCA)", "recombinant barcode read abundance (log10)": 0.0354}
{"sequence": "TCTTGGACTTGGGTTCTAACCTGTTGCTA (site TCTTGGACTGA)", "recombinant barcode read abundance (log10)": 0.0809}
{"sequence": "TCTTGGACTTGGGTTCTAACCTGTTGCTA (site TCTTGGACTTA)", "recombinant barcode read abundance (log10)": 0.0613}
{"sequence": "TGAAAGTCTTGGGTTCTAACCTGTTGCCT (site TGAAAGTCTAG)", "recombinant barcode read abundance (log10)": 0.727}
{"sequence": "TGAAAGTCTTGGGTTCTAACCTGTTGCCT (site TGAACGTCTAG)", "recombinant barcode read abundance (log10)": 0.0267}
{"sequence": "TGAAAGTCTTGGGTTCTAACCTGTTGCCT (site TGAAGGTCTAG)", "recombinant barcode read abundance (log10)": 0.15}
{"sequence": "TGAAAGTCTTGGGTTCTAACCTGTTGCCT (site TGAATGTCTAG)", "recombinant barcode read abundance (log10)": 0.0411}
{"sequence": "TGAACTCCTTGGGTTCTAACCTGTTGCCT (site GTAACTCCTAG)", "recombinant barcode read abundance (log10)": 0.118}
{"sequence": "TGAACTCCTTGGGTTCTAACCTGTTGCCT (site TGAACTCCTAG)", "recombinant barcode read abundance (log10)": 0.122}
{"sequence": "TGACATTCTTGGGTTCTAACCTGTTGCTT (site GGACATTCTAA)", "recombinant barcode read abundance (log10)": 0.139}
{"sequence": "TGACATTCTTGGGTTCTAACCTGTTGCTT (site TGACATTCTAA)", "recombinant barcode read abundance (log10)": 0.13}
{"sequence": "TGAGACACTTGGGTTCTAACCTGTTGCTG (site TGACACACTCA)", "recombinant barcode read abundance (log10)": 0.0729}
{"sequence": "TGAGACACTTGGGTTCTAACCTGTTGCTG (site TGAGACACTCA)", "recombinant barcode read abundance (log10)": 2.68}
{"sequence": "TGAGACTCTTGGGTTCTAACCTGTTGCCT (site TGAGACTCTAG)", "recombinant barcode read abundance (log10)": 2.2}
{"sequence": "TGAGACTCTTGGGTTCTAACCTGTTGCCT (site TGCGACTCTAG)", "recombinant barcode read abundance (log10)": 0.0734}
{"sequence": "TGAGACTCTTGGGTTCTAACCTGTTGCCT (site TGGGACTCTAG)", "recombinant barcode read abundance (log10)": 0.198}
{"sequence": "TGAGACTCTTGGGTTCTAACCTGTTGCCT (site TGTGACTCTAG)", "recombinant barcode read abundance (log10)": 0.463}
{"sequence": "TGAGCTACTTGGGTTCTAACCTGTTGCAC (site TGAGCTACTGT)", "recombinant barcode read abundance (log10)": 1.16}
{"sequence": "TGAGCTACTTGGGTTCTAACCTGTTGCAC (site TGTGCGACTGT)", "recombinant barcode read abundance (log10)": 0.0102}
{"sequence": "TGAGGATCTTGGGTTCTAACCTGTTGCCT (site TGAGGATCTAG)", "recombinant barcode read abundance (log10)": 0.99}
{"sequence": "TGAGGATCTTGGGTTCTAACCTGTTGCCT (site TGAGGCACTAG)", "recombinant barcode read abundance (log10)": 0.503}
{"sequence": "TGAGGGACTTGGGTTCTAACCTGTTGCCT (site CTCATAGCTTC)", "recombinant barcode read abundance (log10)": 0.0546}
{"sequence": "TGAGGGACTTGGGTTCTAACCTGTTGCCT (site TGAGGGACTAG)", "recombinant barcode read abundance (log10)": 1.9}
{"sequence": "TGAGTCCCTTGGGTTCTAACCTGTTGCTT (site TGAGTACCTAA)", "recombinant barcode read abundance (log10)": 0.0411}
{"sequence": "TGAGTCCCTTGGGTTCTAACCTGTTGCTT (site TGAGTCCCTAA)", "recombinant barcode read abundance (log10)": 1.67}
{"sequence": "TGAGTCCCTTGGGTTCTAACCTGTTGCTT (site TGAGTGCCTAA)", "recombinant barcode read abundance (log10)": 0.0566}
{"sequence": "TGAGTCCCTTGGGTTCTAACCTGTTGCTT (site TGAGTTCCTAA)", "recombinant barcode read abundance (log10)": 0.125}
{"sequence": "TGAGTGCCTTGGGTTCTAACCTGTTGCTT (site TGAGTACCTAA)", "recombinant barcode read abundance (log10)": 0.682}
{"sequence": "TGAGTGCCTTGGGTTCTAACCTGTTGCTT (site TGAGTCCCTAA)", "recombinant barcode read abundance (log10)": 0.116}
{"sequence": "TGAGTGCCTTGGGTTCTAACCTGTTGCTT (site TGAGTGCCTAA)", "recombinant barcode read abundance (log10)": 1.1}
{"sequence": "TGAGTGCCTTGGGTTCTAACCTGTTGCTT (site TGAGTTCCTAA)", "recombinant barcode read abundance (log10)": 0.0622}
{"sequence": "TGATCCTCTTGGGTTCTAACCTGTTGCTA (site AGGTCCTCTTA)", "recombinant barcode read abundance (log10)": 0.0555}
{"sequence": "TGATCCTCTTGGGTTCTAACCTGTTGCTA (site TGATCCTCTTA)", "recombinant barcode read abundance (log10)": 0.513}
{"sequence": "TGCACTCCTTGGGTTCTAACCTGTTGCCT (site TACAGTCCTAG)", "recombinant barcode read abundance (log10)": 0.0234}
{"sequence": "TGCACTCCTTGGGTTCTAACCTGTTGCCT (site TGCACTCCTAG)", "recombinant barcode read abundance (log10)": 0.0424}
{"sequence": "TGCATAGCTTGGGTTCTAACCTGTTGCAG (site CTGCAGTCTTG)", "recombinant barcode read abundance (log10)": 0.00928}
{"sequence": "TGCATAGCTTGGGTTCTAACCTGTTGCAG (site TGCATAGCTCT)", "recombinant barcode read abundance (log10)": 1.49}
{"sequence": "TGCCAGACTTGGGTTCTAACCTGTTGCGT (site AGCCACACTAC)", "recombinant barcode read abundance (log10)": 0.0104}
{"sequence": "TGCCAGACTTGGGTTCTAACCTGTTGCGT (site TGCCAGACTAC)", "recombinant barcode read abundance (log10)": 1.74}
{"sequence": "TGCCCCTCTTGGGTTCTAACCTGTTGCCG (site ACAAGGCCTAT)", "recombinant barcode read abundance (log10)": 0.0768}
{"sequence": "TGCCCCTCTTGGGTTCTAACCTGTTGCCG (site TGCCCCTCTCG)", "recombinant barcode read abundance (log10)": 1.46}
{"sequence": "TGCCCTCCTTGGGTTCTAACCTGTTGCTT (site TCCTCTCCTAA)", "recombinant barcode read abundance (log10)": 0.0862}
{"sequence": "TGCCCTCCTTGGGTTCTAACCTGTTGCTT (site TGCCCTCCTAA)", "recombinant barcode read abundance (log10)": 0.0976}
{"sequence": "TGCCTCTCTTGGGTTCTAACCTGTTGCTA (site GTTAGACCTAG)", "recombinant barcode read abundance (log10)": 0.0422}
{"sequence": "TGCCTCTCTTGGGTTCTAACCTGTTGCTA (site TGCCTCTCTTA)", "recombinant barcode read abundance (log10)": 0.279}
{"sequence": "TGCGATACTTGGGTTCTAACCTGTTGCTT (site ACACGAGCTCT)", "recombinant barcode read abundance (log10)": 0.0799}
{"sequence": "TGCGATACTTGGGTTCTAACCTGTTGCTT (site TGCGATACTAA)", "recombinant barcode read abundance (log10)": 0.223}
{"sequence": "TGCGGGTCTTGGGTTCTAACCTGTTGCCT (site GAGCTTGCTTC)", "recombinant barcode read abundance (log10)": 0.273}
{"sequence": "TGCGGGTCTTGGGTTCTAACCTGTTGCCT (site TGCGGGTCTAG)", "recombinant barcode read abundance (log10)": 0.702}
{"sequence": "TGCGTTCCTTGGGTTCTAACCTGTTGCGT (site TGCGTCACTAC)", "recombinant barcode read abundance (log10)": 0.0759}
{"sequence": "TGCGTTCCTTGGGTTCTAACCTGTTGCGT (site TGCGTTCCTAC)", "recombinant barcode read abundance (log10)": 0.88}
{"sequence": "TGCTAGGCTTGGGTTCTAACCTGTTGCCT (site TGCTAGGCTAG)", "recombinant barcode read abundance (log10)": 0.0609}
{"sequence": "TGCTAGGCTTGGGTTCTAACCTGTTGCCT (site TGTCAGGCTAG)", "recombinant barcode read abundance (log10)": 0.0576}
{"sequence": "TGCTCGGCTTGGGTTCTAACCTGTTGCCT (site AGCTCCGCTAG)", "recombinant barcode read abundance (log10)": 0}
{"sequence": "TGCTCGGCTTGGGTTCTAACCTGTTGCCT (site TGCTCGGCTAG)", "recombinant barcode read abundance (log10)": 0.0603}
{"sequence": "TGCTCTACTTGGGTTCTAACCTGTTGCTT (site TGATCTACTAA)", "recombinant barcode read abundance (log10)": 0.122}
{"sequence": "TGCTCTACTTGGGTTCTAACCTGTTGCTT (site TGCTCTACTAA)", "recombinant barcode read abundance (log10)": 0.0286}
{"sequence": "TGCTCTACTTGGGTTCTAACCTGTTGCTT (site TGGTCTACTAA)", "recombinant barcode read abundance (log10)": 0.0891}
{"sequence": "TGCTCTACTTGGGTTCTAACCTGTTGCTT (site TGTTCTACTAA)", "recombinant barcode read abundance (log10)": 0.00634}
{"sequence": "TGCTGTGCTTGGGTTCTAACCTGTTGCCT (site TGCTGTACTAG)", "recombinant barcode read abundance (log10)": 0.0329}
{"sequence": "TGCTGTGCTTGGGTTCTAACCTGTTGCCT (site TGCTGTCCTAG)", "recombinant barcode read abundance (log10)": 0.179}
